Results on four substances are retold here after publication PMC6444592, “Citrullination of HP1γ chromodomain affects association with chromatin” (Epigenetics & Chromatin, 2019).

For assay [1], the system named is mESCs. In words: live-cell single-particle tracking, 13.5 ms, jump distance analysis. The format is cell-based, mouse. The conditions noted are these: for Diffusion coefficient, Bound / Diffusion coefficient, Diffusing / Percentage, Bound / Percentage, Diffusing: 13.5 ms. As to the method: Parental E14 mouse embryonic stem cell (mESC) line was profiled by transcriptome analysis, qPCR and potency assays and was routinely tested for mycoplasma contamination and tested negative. Cells were cultured in DMEM (Gibco) supplemented with 15% standard FCS (Gibco), 0.1 mM non-essential amino acids (Gibco), 1% penicillin/streptomycin, 2 mM L-glutamine (Gibco), 1 mM sodium pyruvate (Gibco), 0.1 mM β-mercaptoethanol (Life Technologies) and 10^6 units/l mLIF (ESGRO, Millipore). E14 cells were stored in incubators at 37 °C in 7.5% CO2 (100% humidity) and maintained in 0.1% gelatin coated 10-cm culture dishes with 1:6 passaging every 2 days. Media was changed on a daily basis. E14 ESCs expressing mouse mEos3.2–HaloTag-HP1 fusion proteins were generated by transfecting appropriate pSB7 plasmids into E14 cells using Lipofectamine 2000 transfection reagent (Invitrogen), followed by selection in 600 µg/ml geneticin (Life Technologies). After 2 weeks of geneticin selection, cells were sorted using a Sony SH800S cell sorter for the expression of mEos3.2. Differentiation of ESCs was induced by LIF withdrawal. ESCs cultured in complete ES cell media (+ LIF) were trypsinised and washed twice in 1x PBS to remove residual LIF, seeded into ES cell media without LIF and incubated for 24, 48 or 72 h.
An IX73 Olympus inverted microscope was used with circularly polarised laser beams aligned and focused at the back aperture of an Olympus 1.40 NA 100 × oil objective (Universal Plan Super Apochromat, 100 × , NA 1.40, UPLSAPO100XO/1.4). Continuous wavelength diode laser light sources used include a 561-nm (Cobolt, Jive 200, 200 mW) and a 405-nm laser (Stradus, Toptica, 405–100, 100 mW). Oblique angle illumination was achieved by aligning the laser off axis such that the emergent beam at the sample interface was near-collimated and incident at an angle slightly less than the critical angle θc ~ 67° for a glass/water interface. This generated a ~ 50 μm diameter excitation footprint. The power of the collimated beams at the back aperture of the microscope was 10 kW/cm^2 and 10–100 W/cm^2 for the 561-nm and 405-nm laser beams, respectively. The lasers were reflected by dichroic mirrors (Semrock, Di01-R405/488/561/635). The fluorescence emission was collected through the same objective and then further filtered using a combination of long-pass and band-pass filters (BLP01-561R and FF01-587/35 for 561 nm excitation). The emission signal was projected onto an EMCCD (Photometrics, Evolve 512 Delta) with an electron multiplication gain of 250 ADU/photon operating in a frame transfer mode.
mESCs expressing mEos3.2–HaloTag-tagged HP1γ were passaged 2 days before imaging onto 35-mm glass bottom dishes No 1.0 (MatTek Corporation P35G-1.0-14-C Case) in phenol red-free serum and LIF conditions, if not stated otherwise. Just before single-particle tracking (SPT) imaging experiments, cells were labelled with 0.5 nM HaloTag–JF549 ligand for at least 15 min, followed by two washes in PBS and a 30-min incubation at 37 °C in media, before imaging the cells in fresh phenol red-free serum and LIF conditions. Cells were under-labelled to prevent overlap of fluorophores during SPT. Using 561 nm excitation, fluorescence images were collected as movies of 10,000 frames at 13.5 ms or 1000 to 5000 frames at 500 ms exposure. For live-cell tracking, data were collected for three biological replicates on separate dishes and the average values compared.
Live-cell 13.5-ms single-molecule traces were analysed using software that detects single-molecule trajectories from SPT movies. Briefly, the code detected puncta positions in each image frame using a brightness-weighted centroid after applying a band-pass filter to remove low-frequency background and high-frequency noise from the image data. To track the HP1 single molecules, only fluorescent puncta smaller than 3 pixels and with a signal to noise greater than 8 were analysed. […]

Assay [2] deals with H3K9me3(1–16) peptides. In words: peptide pulldown assay. The format is binding. The note with it: 300 mM NaCl HBS-EP; Coomassie gel; n = 3 (p values 0.021, 0.008; ns 0.181). Here is the method: H3K9me3 or unmethylated H3(1–16) peptides, linked to Dynabeads MyOne streptavidin T1 (Thermo Fisher Scientific), were used in pulldown assays with eluted GST-HP1 in HBS-EP (300 mM NaCl, 10 mM HEPES KOH pH 7.4, 5 mM EDTA and 0.2% NP-40). Pulldown assays were performed in 300 mM NaCl HBS-EP as previously described. Samples were resuspended in 2 × Laemmli buffer and resolved by SDS-PAGE followed by Coomassie-blue staining. Images were quantified using ImageJ software.

The test system of assay [3] is H3K9me3(1–16) peptides. In words: bio-layer interferometry (BLI). The format is binding. The conditions noted are these: 20 mM Hepes KOH pH 7.2, 70 mM KCl, GST fusion, association 120 s, dissociation 120 s, WT 28.0 μM, R38/9K 25.5 μM, R38/9A 28.3 μM and lower concentrations. Here is the method:
Recombinant mouse full-length HP1 wildtype and mutant proteins were expressed in (as GST fusion proteins), and purified from, Escherichia coli as described. Proteins were concentrated using Amicon Ultra centrifugation filters with a 30 kDa cutoff (Millipore), washed into binding buffer (20 mM Hepes KOH pH 7.2, 70 mM KCl, 1 mM DTT, 0.1% Tween-20, 5% glycerol). Protein concentrations were determined by Bradford protein assay against a BSA standard, and purity was verified by SDS-PAGE followed by Coomassie-blue staining. Real-time binding assays of GST-HP1γ were performed using the BLItz® system (ForteBio) in binding buffer (+ 0.1% BSA). Biotinylated H3(1–16) peptides (NH2-[…](me3)STGGKAP-Biotin) were immobilised to Dip and Read High Precision Streptavidin (SAX) Biosensors (ForteBio), and kinetics for a range of protein concentrations were measured under advanced kinetics settings (1. initial baseline measuring buffer only: 30 s, 2. loading of peptides onto sensors: 120 s, 3. effective baseline measurement: 30 s, 4. association of GST-HP1γ proteins: 120 s, 5. dissociation of GST-HP1γ proteins: 120 s). The data were normalised to the effective baseline signal by subtracting the average baseline value (150–180 s) from each data point (150–420 s). […] Raw data are summarised in Additional file 3: Table S1.
In general terms: BLI is a label-free optical method that tracks binding on a fibre tip over time.

The next assay has as its system PADI4. In words: in vitro citrullination (deimination) assay of HP1γ. The format is biochemical, human. The conditions noted are these: with calcium; for citrullination by PADI4, in words: GST fusion proteins, anti-peptidyl-citrulline immunoblot, n = 3 (p values 0.002, 0.003, 0.008).
Assay [4] relates to mESCs. In words: immunoprecipitation of endogenous HP1γ and anti-peptidyl-citrulline immunoblot. The format is cell-based, mouse. The note with it: −LIF 72 h versus +LIF; nuclear lysates; three replicates. Here is the method: For immunoblotting, cells were lysed in 2 × Laemmli buffer and sonicated in a water bath (Fisherbrand) for 3 min to shear genomic DNA, spun down at full speed in a microfuge for 15 min and incubated for 5 min at 95 °C. Proteins were resolved by SDS-PAGE, transferred to nitrocellulose membrane (Millipore) using wet transfer (transfer buffer: 192 mM glycine, 25 mM Tris.HCl pH8.8) and incubated in blocking solution (5% BSA in TBS containing 0.5% Tween-20 for citrulline sensitive antibodies and 5% non-fat milk powder in TBS containing 0.1% Tween-20 for all other antibodies) for 1 h at room temperature (RT). Membranes were incubated with primary antibody at 4 °C o/n and appropriate HRP-conjugated secondary antibody for 1 h at RT. Membranes were then incubated for enhanced chemiluminescence (ECL, Promega), and proteins were detected by exposure to X-ray film or using the ChemiDoc™ MP imaging system (Bio-Rad). Images were quantified using ImageJ analysis software. Primary antibodies diluted in blocking solution were used to detect citrullinated histone H3R2 (H3R2-Cit, Abcam ab176843 at 1:1000 dilution), HP1γ (Millipore 05-690 MAB clone 42s2 [16] at 1:1000 dilution), β-Tubulin (Abcam ab6046 at 1:1000 dilution) and peptidyl-citrulline (Millipore MABN328, clone F95 [48] at 1:1000 dilution). […]

Experimental for PADI4: For immunoblotting, cells were lysed in 2 × Laemmli buffer and sonicated in a water bath (Fisherbrand) for 3 min to shear genomic DNA, spun down at full speed in a microfuge for 15 min and incubated for 5 min at 95 °C. Proteins were resolved by SDS-PAGE, transferred to nitrocellulose membrane (Millipore) using wet transfer (transfer buffer: 192 mM glycine, 25 mM Tris.HCl pH8.8) and incubated in blocking solution (5% BSA in TBS containing 0.5% Tween-20 for citrulline sensitive antibodies and 5% non-fat milk powder in TBS containing 0.1% Tween-20 for all other antibodies) for 1 h at room temperature (RT). Membranes were incubated with primary antibody at 4 °C o/n and appropriate HRP-conjugated secondary antibody for 1 h at RT. Membranes were then incubated for enhanced chemiluminescence (ECL, Promega), and proteins were detected by exposure to X-ray film or using the ChemiDoc™ MP imaging system (Bio-Rad). Images were quantified using ImageJ analysis software. Primary antibodies diluted in blocking solution were used to detect citrullinated histone H3R2 (H3R2-Cit, Abcam ab176843 at 1:1000 dilution), HP1γ (Millipore 05-690 MAB clone 42s2 [16] at 1:1000 dilution), β-Tubulin (Abcam ab6046 at 1:1000 dilution) and peptidyl-citrulline (Millipore MABN328, clone F95 [48] at 1:1000 dilution). HRP-conjugated secondary antibodies diluted in blocking solution were used against mouse IgG (Dako, P0447 at 1:5000 dilution), rabbit IgG (Abcam, ab6721 at 1:20,000 dilution) and sheep IgG (Abcam, ab6747 at 1:5000 dilution).
In vitro deimination of GST-HP1 variants was carried out as described previously [22]. In vitro deimination assays were performed in the presence and absence of 100 ng H3(1–16) or H3K9me3 peptides as appropriate. Samples were resuspended in 1 × Laemmli buffer for immunoblot analysis.

Take “HP1γI165K: chromoshadow domain (CSD) mutant HP1γI165K, which prevents dimerisation of HP1γ [reference compound]”: the “Diffusion coefficient, Bound” value is listed as 0.081 µm2s-1 with mESCs [1] (+LIF, replicate i); 0.100 µm2s-1 in the assay on mESCs [1] (+LIF, replicate ii); 0.00228 µm2s-1 with mESCs [1] (+LIF, replicate iii); 0.023 µm2s-1 with mESCs [1] (+LIF, replicate iv); 0.098 µm2s-1 with mESCs [1] (−LIF, replicate ii). Further, the “Diffusion coefficient, Diffusing” value turned out to be 1.500 µm2s-1 in the assay on mESCs [1] (+LIF, replicate i); 1.485 µm2s-1 in the assay on mESCs [1] (+LIF, replicate ii); 1.500 µm2s-1 in the assay on mESCs [1] (+LIF, replicate iii); 1.500 µm2s-1 with mESCs [1] (+LIF, replicate iv); 1.101 µm2s-1 in the assay on mESCs [1] (−LIF, replicate i); 1.500 µm2s-1 in the assay with mESCs [1] (−LIF, replicate ii). For the same substance, the Percentage, Bound is 32.7% in the assay with mESCs [1] (+LIF, replicate i); 20.9% in the assay with mESCs [1] (+LIF, replicate ii); 0.4% in the assay on mESCs [1] (+LIF, replicate iii); 4% in the assay with mESCs [1] (+LIF, replicate iv); 10% in the assay on mESCs [1] (−LIF, replicate i); 16.6% with mESCs [1] (−LIF, replicate ii). Also, the Percentage, Diffusing in the assay on mESCs [1] (+LIF, replicate i) is 67.3%; in the assay on mESCs [1] (+LIF, replicate ii), 79.1%; with mESCs [1] (+LIF, replicate iii) it was 99.6%; in the assay on mESCs [1] (+LIF, replicate iv), 96%; in the assay on mESCs [1] (−LIF, replicate i) it was 90%; in the assay on mESCs [1] (−LIF, replicate ii) it was 83.4%. Also, the “diffusion coefficient of bound molecules, in words” value in the assay on mESCs [1] (mESCs, n = 4–5) is on record as “remained unchanged”. Also, the “diffusion of diffusing molecules versus wildtype” value with mESCs [1] (mESCs, n = 4–5, p value: 0.0001) is “moved significantly more quickly than wildtype molecules”. Also, the “percentages of molecules within diffusing and bound fraction, significance versus WT” value in the assay on mESCs [1] (n = 4–5, p value > 0.165) is recorded as “ns”.

For the substance “HP1γR38/9K: HP1γ with both R38 and R39 mutated to lysine”, in the assay with H3K9me3(1–16) peptides [2], the “binding in pulldown, in words” value is “maintained binding to H3K9me3 peptides”. Moreover, the “BLI binding, in words” value in the assay on H3K9me3(1–16) peptides [3] is “binds H3K9me3 peptides with similar affinity to the WT protein”; with H3K9me3(1–16) peptides [3] (listed as R38/9K), “maintained binding to H3K9me3 peptides”. The “enhancement of citrullination by H3K9me3 peptides, in words” value in the assay on PADI4 (H3K9me3(1–16) peptides, mutant used as substrate) was “abolished”.

“R39K: HP1γ with R39 substituted with lysine”: in the assay with PADI4, the “citrullination by PADI4, in words” value is recorded as “abolished”.

As to heterochromatin protein 1 gamma [HP1γ], the “binding in pulldown, in words” value in the assay with H3K9me3(1–16) peptides [2] is “specifically binds to H3K9me3 peptides”. Moreover, the “citrullination by PADI4, in words” value in the assay on PADI4 is “PADI4 citrullinates HP1γ in vitro”. Besides, in the assay with mESCs [4], the “citrullination of endogenous HP1γ in differentiating mESCs” value is recorded as “significantly less citrullinated in differentiating mESCs”.
